Consider 68 compounds from PubChem BioAssay AID1329 (NMMLSC, 2008).

Active and inactive are the calls of the source. No rule for the calls is given here.

Sequence of Induced myeloid leukemia cell differentiation protein Mcl-1 (Homo sapiens) (Q07820 whole entry, looked up): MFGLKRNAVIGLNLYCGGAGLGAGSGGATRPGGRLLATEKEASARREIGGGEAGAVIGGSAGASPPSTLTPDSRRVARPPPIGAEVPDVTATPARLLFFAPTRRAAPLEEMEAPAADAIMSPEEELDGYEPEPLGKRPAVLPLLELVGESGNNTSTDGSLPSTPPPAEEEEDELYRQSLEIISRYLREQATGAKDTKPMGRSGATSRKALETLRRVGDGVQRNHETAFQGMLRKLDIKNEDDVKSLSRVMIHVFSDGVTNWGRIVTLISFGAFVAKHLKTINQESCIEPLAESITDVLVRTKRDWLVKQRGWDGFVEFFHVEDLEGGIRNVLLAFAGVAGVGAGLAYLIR

The experiment concerns the target Induced myeloid leukemia cell differentiation protein Mcl-1 (Homo sapiens) (UniProt Q07820). The experiment in a line: Mcl-1/Bim interaction regulators – biochemical, bead-based flow cytometry, multiplexed, human, dose response (AID 1329). The conditions noted are these: Bim peptide-Mcl-1 binding, MCF. (Flow cytometry measures light scatter and fluorescence of single cells or particles in a stream.)
In the case of `COc1ccc(N2CCN(C(=O)c3cc(=O)[nH]c4ccccc34)CC2)cc1`, the percent span entry is “inactive”. With `Cc1ccc(N=c2ssnc2Cl)cc1` the entry was “inactive”. As to `N/C(=N\N=C/c1ccc(Br)cc1)N/N=C\c1ccc(Br)cc1`, the percent span result is “inactive”. Turning to `O=C(c1cc(=O)c2ccccc2o1)N1CCN(c2ccccc2F)CC1`, the percent span entry was “inactive”. Consider `CCOC(=O)c1sc(NC(=O)c2ccncc2)c(C#N)c1C`, for which the percent span result was “inactive”. In the case of `COc1ccc(C2CC(=O)C3=C(C2)Nc2ccccc2NC3c2coc3ccccc3c2=O)cc1OC` (stereo not drawn), the percent span entry is “inactive”. With `CN(CC(=O)O/N=C(\N)c1ccc([N+](=O)[O-])cc1)S(=O)(=O)c1ccccc1` the entry was “inactive”; with `CC(CCc1ccccc1)NC(=O)C1CCN(S(=O)(=O)N2CCCCC2)CC1` (stereo not drawn), “inactive”; with `O=C(Nc1ccc(N2CCOCC2)cc1)Nc1ccc2nc(-c3ccco3)c(-c3ccco3)nc2c1`, “inactive”.

For `COc1ccc(C(=O)/C=C/c2cc(OC)c(O)c(OC)c2)c(F)c1`, the percent span entry was “inactive”. With `CC(NCc1ccc(-c2ccccc2)cc1)C(O)c1ccccc1` (stereo not drawn) the entry was “inactive”; with `CN(C)c1ccc(Nc2nc(-c3cccnc3)cs2)cc1`, “inactive”. On to `Cc1ccc(CNc2ccc3c(c2)OCO3)c(C)c1`, for which the percent span result was “inactive”.

For the compound `O=C(COC(=O)c1ccccn1)NC1CCCCC1`, the percent span entry is “inactive”. With `O=C1/C(=C\c2ccco2)NC(=S)N1c1ccccc1` the entry was “inactive”. As to `c1csc(C2=Nn3c(nnc3-c3ccncc3)SC2)c1`, the percent span entry is “inactive”.

In the case of `COc1ccccc1-n1c(SCC(=O)N2CCc3ccccc32)nc2c(c1=O)SCC2`, the percent span entry is “inactive”. With `C=CCn1c(C)cc(-c2csc(NC)n2)c1C`, the percent span entry is “inactive”. Regarding `N#Cc1ccc(N=c2ssnc2Cl)cc1`, the percent span entry was “inactive”. Turning to `Cc1ccc2c(c1)C1CN(C)CCC1N2C(=O)Nc1cccc(Cl)c1` (stereo not drawn), the percent span result was “inactive”.

With `COc1ccc(NC(=O)Cc2c(F)cccc2Cl)c(OC)c1`, the percent span entry was “inactive”. Consider `CCN(CC)c1ccc(-c2nn3c(-c4ccccc4OC)nnc3s2)cc1`, for which the percent span result was “inactive”. Regarding `CCSc1ncnc2sc(C)c(C)c12`, the percent span entry was “inactive”.

In the case of `CC(=O)c1ccc(NC(=O)c2ccc3nc(-c4ccco4)c(-c4ccco4)nc3c2)cc1`, the percent span entry was “inactive”. With `O=c1[nH]c(SCc2nc3ccccc3c(=O)n2-c2ccccc2C(F)(F)F)nc2ccccc12` the entry was “inactive”. `COc1cc(/C=N/NC(=O)c2ccc([N+](=O)[O-])cc2Cl)cc(Br)c1O`: the percent span result is “inactive”. For `CNC(=O)c1c(N)sc2c1CCCCC2`, the percent span result was “inactive”. For `NNC(=O)COc1ccccc1F`, the percent span result was “inactive”.

In the case of `COc1cc(C2Nc3cccc4cccc(c34)N2)ccc1OC(C)=O`, the percent span entry is “inactive”. In the case of `O=C(c1cc2ccccc2oc1=O)N(c1ccccc1)C1C=CS(=O)(=O)C1` (stereo not drawn), the percent span entry is “inactive”. As to `COC(=O)c1ccc(-n2nnnc2SCC(=O)Nc2cc(OC)ccc2OC)cc1`, the percent span entry was “inactive”. Take `CN1CCN(c2ccccc2N)CC1`: the percent span entry is “inactive”. For `O=C1c2ccccc2-c2onc3ccc(NCc4ccco4)c1c23`, the percent span result was “inactive”. For `COc1ccccc1-n1c(-c2ccccc2)c[nH]c1=S`, the percent span result is “inactive”. On to `Cc1onc(-c2ccccc2Cl)c1C(=O)Nc1nn[nH]n1`, for which the percent span result was “inactive”. Regarding `Cc1ccc(/C=C2\CCCC3=C2NC(=S)NC3c2ccc(C)cc2)cc1` (stereo not drawn), the percent span result is “inactive”. Regarding `CCCn1c(N2CCN(C)CC2)nc2c1c(=O)[nH]c(=O)n2C`, the percent span result was “inactive”. `Nc1cccc(-c2cn3cccnc3n2)c1`: the percent span entry was “inactive”.

As to `CC(=O)OCCNc1cc(Sc2nc3ccccc3[nH]2)c2nonc2c1[N+](=O)[O-]`, the percent span result was “inactive”.

For `CN(Cc1ccccc1)c1nc2c(c(=O)[nH]c(=O)n2C)n1C`, the percent span result was “inactive”. As to `CCCc1nnc2n1N=C(c1ccc(-c3cc(Cl)ccc3Cl)o1)CS2`, the percent span result was “inactive”. Regarding `CN1C(=O)/C(=C/c2ccc(-c3ccccc3[N+](=O)[O-])o2)SC1=Nc1ccc(Cl)c(C(=O)O)c1`, the percent span result was “inactive”. For the compound `CCOc1ccc(-n2cc(-c3ccc(OC)c(OC)c3)[nH]c2=S)cc1`, the percent span result was “inactive”. With `Cc1ccc(/C=N/N(C)C2=NS(=O)(=O)c3ccccc32)o1` the entry was “inactive”; with `O=C(Nc1ccccc1N1CCOCC1)c1cccs1`, “inactive”. With `CNC(=O)CC1C(=O)N(Cc2ccccc2)C(=S)N1NC(=O)c1cccc(F)c1` (stereo not drawn), the percent span result is “inactive”. Turning to `CN(C(=O)NC1CCCCC1)c1ccccc1`, the percent span result was “inactive”. In the case of `O=[N+]([O-])c1c(NCCCO)cc(Sc2nc3ccccc3s2)c2nonc12`, the percent span result is “inactive”. On to `O=C(CSc1nnc(-c2ccccc2)c(-c2ccccc2)n1)N1CCc2ccccc21`, for which the percent span result was “inactive”. With `CNc1ccccc(C(=O)/C=C/c2ccccc2OC)c1=O` the entry was “inactive”; with `N=C1C(c2nc3ccccc3s2)=C(O)CN1Cc1ccccc1`, “inactive”; with `Nc1ccccc1N=c1ssnc1Cl`, “inactive”. Turning to `CCN1CCN(c2ccc(NC(=O)c3cccc4ncccc34)cc2)CC1`, the percent span result is “inactive”. Take `CCOc1cc(/C=C2/N=C(C)C(C(=O)OC)=C2O)ccc1O`: the percent span result was “inactive”. Turning to `S=C(NCCc1ccccc1)NCCc1ccccc1`, the percent span result was “inactive”. On to `Cc1ccc(-c2ccc(CCC(=O)O)n2NC(=O)c2cccs2)cc1`, for which the percent span result was “inactive”. With `COC(=O)Cc1ccc(NC(=S)N2CCN(c3cccc(O)c3)CC2)cc1`, the percent span entry is “inactive”. Regarding `CN=c1scc(-c2cccs2)n1/N=C/c1ccc(O)c(O)c1O`, the percent span result is “inactive”.

Regarding `c1ccc(-c2nc(N3CCCCCC3)c3ccccc3n2)nc1`, the percent span entry was “inactive”.

As for `Cc1ccc2c(c1)c(C)c(C)n2CC(O)Cn1nc(C)c(Br)c1C` (stereo not drawn), the percent span entry is “inactive”. On to `O=C(Cc1ccccc1)N/N=C/c1cccn1-c1ccc([N+](=O)[O-])cc1`, for which the percent span entry was “inactive”. With `C/C(=N\NC(=O)Cc1cccn1C)c1ccc2ccccc2c1` the entry was “inactive”; with `O=C(O)c1cccc(NC2=C(Cl)C(=O)c3ccccc3C2=O)c1`, “inactive”; with `Cc1csc(Nc2ccccc2C(F)(F)F)n1`, “inactive”. As for `Cc1ccc(NC(=O)C/C(N)=N/OC(=O)c2ccccc2)cc1`, the percent span result was “inactive”. With `COc1ccc(N2CCN(CCCNC(=O)CCCn3c(=O)[nH]c4ccsc4c3=O)CC2)cc1` the entry was “inactive”; with `Cc1cc(N)ccc1N1CCCC1`, “inactive”; with `O=C1Nc2ccc([N+](=O)[O-])cc2OC1CCN1CCN(Cc2ccc3c(c2)OCO3)CC1` (stereo not drawn), “inactive”.
